# Reference: US20030096004A1, “(S,S'),(S,R')-amphetaminil, compositions and uses thereof” (priority 2001, published 2003)
# How the values were obtained:
# normal rats [1] = assay: Locomotor activity in normal rats (grid line crossings); format: in vivo, rat; details: for cumulative locomotor activity: vs vehicle; for locomotor activity (overall effect): male Wistar rats, all doses tested
# Experimental: (§1) Male Wistar rats (n=4 per group) were randomly allocated to each drug treatment group. Drugs were administered such that, with the exception of fusaric acid, each rat in each group received all doses of the drug or vehicle in a semi random manner according to the modified Latin Square in Table 1. Compounds were administered at the doses: 0.1, 1 and 10 mg/kg s.c. in 100% DMS0 (vehicle). Amphetamine was administered at 0.1, 1 and 5 mg/kg s.c. in saline (vehicle). Fusaric acid was administered at 20, 40 and 80 mg/kg s.c. in saline (vehicle). Rats received each dose of fusaric acid (20, 40 and 80 mg/kg), doses given in order, starting with vehicle. A one-week interval was provided between doses.
# (§2) At the start of the experiment, rats were placed in standard perspex behaviour boxes with a visible grid on the floor to allow determination of locomotor activity. The animals were allowed to acclimatise to their environment for 1 hour prior to drug/saline administration. Following drug administration animals were returned to the behaviour cages and locomotor activity was assessed for a further 5 hours or until baseline (zero activity for 30 minutes) was achieved, whichever was sooner. Locomotor activity was assessed by videoing the rats throughout the experiment, and counting the number of times a rat crossed a grid line during a period of 5 minutes every 10 minutes. Throughout the experiment animals were scored for stereotyped behaviours for 15 seconds every 10 minutes by a trained observer using the scoring methods described in Table 2.
# The mean and standard error for locomotor activity over 10 minutes for each rat at each time point was determined. […] Cumulative activity, during the 300 min was also calculated, and the effect of dose of drug was analyzed by one-way repeated measures ANOVA followed by Dunnett's t-test (GraphPad Prizm). Data was also analysed for significant fit to a sigmoidal-shaped log dose-response curve using non-linear regression analysis (GraphPad Prizm).
# normal rats [2] = assay: Induction of stereotyped behaviour in normal rats (stereotypy scoring); format: in vivo, rat; details: for duration of stereotypy: 300 min experiment; for stereotypy (overall effect): male Wistar rats, all doses tested; for stereotypy (overall effect) / onset of stereotypy: s.c.; for onset of stereotypy: 10 mg/kg stated for (S,S′),(S,R′)-amphetaminil; for differences in overall stereotypy between groups: total stereotypy score, 0.1-10 mg/kg s.c. vs vehicle
# Experimental: as §1, §2
# The mean and standard error for stereotypy activity for 15 seconds every 10 minutes for each rat at each time point was determined. […] Cumulative activity during the 300 min was also calculated, and the effect of dose of drug was analyzed by Kruskall Wallis one-way ANOVA (GraphPad Prizm). Data was also analysed for significant fit to a sigmoidal-shaped log dose-response curve using non-linear regression analysis (GraphPad Prizm)
# [3] = tested on: children with hyperkinetic syndrome; details: Pacit et al., 1996; cited from earlier work
SMILES,"share of the racemate's pharmacological activity, cumulative locomotor activity (FIGS. 3B and 4B) (normal rats [1]; 1 mg/kg)",cumulative locomotor activity (normal rats [1]; 10 mg/kg s.c.),locomotor activity (overall effect) (normal rats [1]; s.c.),onset of locomotor activity after administration (normal rats [1]; s.c.) [min],peak of locomotor activity (normal rats [1]; s.c.) [min],"share of the racemate's pharmacological activity, total stereotypy score (FIGS. 7B and 8B) (normal rats [2]; 1 mg/kg)",peak of stereotypy (normal rats [2]; 10 mg/kg s.c.) [min],duration of stereotypy (normal rats [2]; 10 mg/kg s.c.),stereotypy (overall effect) (normal rats [2]),onset of stereotypy (normal rats [2]),differences in overall stereotypy between groups (normal rats [2]),onset of locomotor activity (normal rats [1]; 5 mg/kg s.c.),time of maximum effect on locomotor activity after administration (normal rats [1]; 5 mg/kg s.c.) [min],"cumulative locomotor activity (normal rats [1]; 5 mg/kg s.c., over the duration of the experiment)",overall stereotypy during the 300 min duration of the experiment (normal rats [2]; 5 mg/kg s.c.),efficacy in the treatment of ADHD in children [3]
"C[C@@H](Cc1ccccc1)NC(C#N)c1ccccc1 (stereo partly drawn) [(S,S′),(S,R′)-Amphetaminil, alpha-[(1S-Methyl-2-phenylethyl)amino]benzeneacetonitrile]",responsible for nearly all of the pharmacological activity of the racemate,significant effect,increased locomotor activity in a dose-related manner,≤ 30,60,responsible for nearly all of the pharmacological activity of the racemate,100,sustained during the 300 min duration of the experiment,increased stereotypy in a log dose-related manner,rapid,did not reach statistical significance,–,–,–,–,–
CC(N)Cc1ccccc1 (centres unmarked) [Amphetamine],–,–,dose-related increase in locomotor activity,–,–,–,–,–,log dose-related increase stereotypy,–,–,rapid,30,significantly increased,tended to increase,–
"CC(Cc1ccccc1)NC(C#N)c1ccccc1 (racemic) [Racemic amphetaminil, alpha-[(1-methyl-2-phenylethyl)amino]benzeneacetonitrile]",–,–,increased locomotor activity only at the highest dose of 10 mg/kg,–,–,–,–,sustained for the duration of the experiment,increased stereotypy in a log dose-related manner,rapid,did not reach statistical significance,–,–,–,–,efficacy
